Results published in PubChem BioAssay AID1645865 (Buhrlage Lab, Dana-Farber Cancer Institute and Novartis …, 2021).
Calls of active or inactive are those of the source.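 How the source made its calls: active means maximal inhibition of the USP30 enzyme reaching 30% or more across the dose series; inactive means the rest.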

Each compound was assayed against Ubiquitin carboxyl-terminal hydrolase 30 (Homo sapiens) (UniProt Q70CQ3) (assay: ubiquitin-specific protease 30 DUB inhibitors, concentration-effect, biochemical, validation of primary actives (AID 1645865)). Settings: purified USP30, Ub-rhodamine cleavage, fluorescence, 2 h.
Sequence of Ubiquitin carboxyl-terminal hydrolase 30 (Homo sapiens) (Q70CQ3 whole entry, looked up): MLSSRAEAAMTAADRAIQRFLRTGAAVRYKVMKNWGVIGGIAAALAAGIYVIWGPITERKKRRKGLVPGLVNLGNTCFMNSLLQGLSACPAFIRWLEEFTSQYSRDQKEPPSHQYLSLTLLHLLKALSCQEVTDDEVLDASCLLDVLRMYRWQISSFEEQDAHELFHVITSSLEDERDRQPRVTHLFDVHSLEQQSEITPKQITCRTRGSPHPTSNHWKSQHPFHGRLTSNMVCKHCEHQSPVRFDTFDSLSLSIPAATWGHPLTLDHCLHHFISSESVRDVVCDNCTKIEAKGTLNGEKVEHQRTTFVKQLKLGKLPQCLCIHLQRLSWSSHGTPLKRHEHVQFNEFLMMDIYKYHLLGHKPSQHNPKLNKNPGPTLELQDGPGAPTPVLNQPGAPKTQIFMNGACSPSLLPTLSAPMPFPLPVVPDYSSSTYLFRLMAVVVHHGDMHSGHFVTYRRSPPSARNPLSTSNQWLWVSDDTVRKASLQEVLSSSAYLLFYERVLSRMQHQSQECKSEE
With COc1ccc(-c2nc(-c3nnn(Cc4ccc(F)cc4)c3C)no2)c(OC)c1 the IC50 was 8.97 µM.
In the case of CN(C)S(=O)(=O)N1CCCC2(C1)Nc1cccnc1NC2=NC1CCCC1 (stereo not given), the IC50 is reported as > 50 µM (inactive).
With Cc1ccccc1C(=O)c1ccc(C(=O)NC2CCCCCC2)[nH]1 the IC50 was 2.41 µM.
Compound COc1cc(OC)cc(-n2c(=O)c3sccc3n(CC(=O)c3ccc(F)cc3)c2=O)c1 has an IC50 of 31.3 µM.
With Cc1ccc(Cl)cc1NC(=O)c1cc(-c2ccccn2)n[nH]1 the IC50 was 6.42 µM.
O=C(Nc1ccc(-c2nnc3n2CCCCC3)cc1)c1ccc2c(c1)OCO2 was tested, and the IC50 was > 50 µM (inactive).
Cc1noc(NS(=O)(=O)c2ccc(NC(=O)CSc3ccc4ccccc4c3)cc2)c1C was tested, and the IC50 was > 50 µM (inactive).
For O=C(NCc1cccc(NC(=O)C2CC2)c1)Nc1cccc2ccccc12, the IC50 was 21.7 µM.
CC(C)c1cc(Nc2cccc(F)c2)n2nc(-c3cccnc3)nc2n1 was tested, and the IC50 was 6.35 µM.
CCCCc1nc2sc3c(SCC(=O)Nc4cccc(C)c4)ncnc3c2c2c1CCC2 was tested, and the IC50 was > 50 µM (inactive).
For CCn1c(Cn2cccn2)nc2cc(NC(=O)c3ccc(F)cc3)ccc21, the IC50 was > 50 µM (inactive).
Work on CCOc1ccc(Nc2cc(C(=O)NCCc3ccccc3)c3ccccc3n2)cc1 yielded an IC50 of 13.6 µM.
Compound O=C1COc2ccc(NC(=O)c3cnn(Cc4ccccc4)c3)cc2N1 has an IC50 of 42.2 µM.
For COc1ccccc1NC(=O)CNC(=O)c1nn(-c2ccc(OC)c(OC)c2)c(=O)c2ccccc12, the IC50 was 35.6 µM.
O=C(Nc1oc2ccccc2c(=O)c1-c1ccc2c(c1)OCO2)C1CCCCC1 gave an IC50 of 27.2 µM.
O=C(NCc1ccc(Cl)cc1)c1ccc(N2CCCS2(=O)=O)cc1 was tested, and the IC50 was > 5 µM (inactive).
In the case of O=C(Cn1cncc(-c2nc(-c3ccccc3)cs2)c1=O)NC1CCCC1, the IC50 is reported as 34.5 µM.
Cc1ccccc1OCCSc1nc2ccccc2n1CC(=O)NC1CC1 gave an IC50 of 15.5 µM.
CCCOc1ccc(C(=O)Nc2ccc(S(=O)(=O)Nc3cc(C)nc(C)n3)cc2)cc1 was tested, and the IC50 was > 50 µM (inactive).
With O=C1Nc2ccccc2C(=O)C1C(c1ccc(Cl)cc1)C1C(=O)Nc2ccccc2C1=O (stereo not given) the IC50 was > 50 µM (inactive).
With CC(C)CCCCCCCCCCC(=O)N(C)[C@H](CO)C(=O)N[C@H](C)C(=O)NCC(=O)N(C)C1C(=O)N[C@@H](C)C(=O)NC(C(=O)O)Cc2ccc(O)c(c2)-c2cc1ccc2O (stereo not given in full) the IC50 was > 50 µM (inactive).
For COc1ccc(-n2c(SCC(=O)c3ccc(F)cc3)nnc2-c2cccnc2)cc1, the IC50 was 21.9 µM.
CCOc1ccc(NC(=O)Cn2c(=O)n(CCC(=O)NCc3ccccc3OC)c(=O)c3ccccc32)cc1 showed an IC50 of 3.39 µM.
With COc1ccc(NC(=O)CC(=O)c2ccc([N+](=O)[O-])cc2)cc1S(=O)(=O)Nc1ccc(Cl)cc1 the IC50 was 37.1 µM.
With O=C(Cc1ccccc1F)N1CCC2(CC1)CC1(CO2)Nc2ccccc2-n2cccc21 (stereo not given) the IC50 was > 50 µM (inactive).
For COc1ccccc1NC(=O)Cn1cc(C(=O)c2ccc(C)cc2)c(=O)c2ccccc21, the IC50 was 22.9 µM.
For CC1(C)OC2=C(C(=O)c3cc(O)cc(O)c3C2=O)c2cc(CO)c(O)cc21, the IC50 was > 50 µM (inactive).
Cn1c(-c2nnc(SCC(=O)NCCc3ccccc3)o2)cc2ccccc21 was tested, and the IC50 was 7 µM.
With Clc1cc2nc(N3CCN(c4ccccn4)CC3)c3nncn3c2cc1Cl the IC50 was 2.16 µM.
Compound CC1CC[C@@]2(NC1)O[C@H]1C[C@H]3[C@@H]4CC=C5C[C@@H](O)CC[C@]5(C)[C@H]4CC[C@]3(C)[C@H]1[C@@H]2C (stereo not given in full) has an IC50 of 13 µM.
For N#C/C(=C\c1ccc(OCc2cccc(C(=O)O)c2)cc1)c1ccc(F)cc1, the IC50 was > 50 µM (inactive).
With CCc1ccc(-n2nc(C)c3c2NC(=O)CC3C(=O)c2ccc3c(c2)OCCO3)cc1 (stereo not given) the IC50 was 21 µM.
Compound Nc1nc(OCc2ccccc2)c2[nH]c(/C=C/c3cccs3)nc2n1 has an IC50 of 35.6 µM.
For O=C(Cc1c[nH]c2ccccc12)Nc1nc2ccccc2s1, the IC50 was > 50 µM (inactive).
O=C(NCc1ccccc1)c1ccc2c(=O)n(-c3ccccc3)c(=O)[nH]c2c1 was tested, and the IC50 was 16 µM.
Cc1ccc2nc(CNC(=O)c3ccccc3-c3nc(-c4ccc(F)cc4)no3)[nH]c2c1 gave an IC50 of 33.9 µM.
For COc1ccc(CC(=O)Nc2cccc(-c3nc4ncccc4o3)c2)cc1OC, the IC50 was > 50 µM (inactive).
With CCn1cnc2c1c(=O)n(CC(=O)NCc1ccccc1Cl)c(=O)n2Cc1ccccc1 the IC50 was > 50 µM (inactive).
With Cc1ccc(S(=O)(=O)N(C)C)cc1NC(=O)Cc1ccc(Cl)c(Cl)c1 the IC50 was > 50 µM (inactive).
O=C(COC(=O)c1cc(Cl)ccc1O)Nc1ccc2c(c1)OCCO2 was tested, and the IC50 was 16.3 µM.
CC(=O)c1ccc(Cc2ncc(C(F)(F)F)cc2Cl)s1 was tested, and the IC50 was > 50 µM (inactive).
In the case of O=C(Cn1c(=O)n(Cc2ccc3c(c2)OCO3)c(=O)c2ncccc21)c1ccc(Cl)cc1, the IC50 is reported as 32.1 µM.
For CCN(C(=O)c1cc2c(Cl)nc3ccccc3c2s1)c1ccccc1F, the IC50 was > 50 µM (inactive).
With NC(=O)Cn1c(=O)n(Cc2ccc(C(=O)NC3CCCC3)cc2)c(=O)c2ccccc21 the IC50 was > 50 µM (inactive).
For CCCn1c(=O)n(CC(=O)c2ccccc2F)c2c(C(N)=O)nc(-c3ccco3)nc21, the IC50 was > 50 µM (inactive).
In the case of O=C(Nc1ccccc1)c1cn(-c2cc(N3CCCC3)ncn2)cn1, the IC50 is reported as > 50 µM (inactive).
In the case of Cc1cccc(C(=O)NCc2nc3ccccc3n2Cc2ccccc2C)c1, the IC50 is reported as 41.8 µM.
In the case of O=C(COC(=O)c1ccc(CN2CCCC2=O)cc1)c1ccc2c(c1)OCCO2, the IC50 is reported as > 50 µM (inactive).
Cc1c(Cl)cccc1NC(=O)Cn1c(=O)c2ccccc2n2nncc12 was tested, and the IC50 was > 50 µM (inactive).
With Clc1cccc(N2CCN(c3ncnc4nc[nH]c34)CC2)c1 the IC50 was 24.6 µM.
C=C1CCC2[C@](C)(CCC[C@]2(C)C(=O)OC)[C@H]1CCc1ccoc1C[N+](C)(C)Cc1ccccc1 (stereo not given in full) gave an IC50 of 16.6 µM.
O=C(NC1CCN(Cc2ccccc2)CC1)c1[nH]nc2c1COc1ccccc1-2 was tested, and the IC50 was > 50 µM (inactive).
In the case of Nc1ccccc1SC(CC(=O)c1ccc(Cl)cc1)c1ccsc1 (stereo not given), the IC50 is reported as > 50 µM (inactive).
With CCS(=O)(=O)N1CCc2cc(C(=O)Nc3ccc4c(c3)OCCO4)ccc21 the IC50 was > 50 µM (inactive).
In the case of COc1cc(N)c(Cl)cc1C(=O)OCC(=O)c1ccc2c(c1)OCCO2, the IC50 is reported as > 50 µM (inactive).
With COc1ccc(CCn2cnc3c([nH]c4ccccc43)c2=O)cc1 the IC50 was 2.47 µM.
Compound COc1ccc(N(CC(=O)NC2CCCCC2)C(=O)c2ccc(-c3ccccc3)[nH]2)cc1OC has an IC50 of 2.83 µM.
O=C(COC(=O)CCc1ccc(S(=O)(=O)N2CCOCC2)cc1)Nc1ccc2c(c1)OCCO2 was tested, and the IC50 was > 50 µM (inactive).
Compound COc1cccc(NC(=O)c2cnc3c(c2)c(=O)n(C)c(=O)n3C)c1 has an IC50 of 2.05 µM.
In the case of Cc1cc(C(=O)Nc2ccc3c(c2)OCCO3)no1, the IC50 is reported as > 50 µM (inactive).
O=S(=O)(c1ccc2c(c1)OCCO2)N(Cc1ccccc1)Cc1nnc(-c2ccccc2)o1 was tested, and the IC50 was > 50 µM (inactive).
In the case of CCn1ccc2c(cc(C(=O)Nc3cc(F)ccc3F)n2C)c1=O, the IC50 is reported as > 50 µM (inactive).
Compound CN(Cc1ccccc1)S(=O)(=O)c1ccc2[nH]cc(C(=O)NCc3cccs3)c(=O)c2c1 has an IC50 of 0.38 µM.
With COc1ccc(CCNC(=O)c2ccc3ccccc3c2)cc1OC the IC50 was > 50 µM (inactive).
Compound CCOC(=O)c1ccc(NC(=O)Cn2c(=O)n(CC(=O)NCc3ccco3)c(=O)c3ccccc32)cc1 has an IC50 of 1.01 µM.
For CCC(=O)Nc1nc2cc(NC(=O)Nc3cc(C)cc(C)c3)ccc2s1, the IC50 was 1.65 µM.
With Cc1nc(C(=O)NC2(O)C(=O)c3ccccc3C2=O)cs1 the IC50 was 23.1 µM.
Cc1ccc(NC(=O)CSc2nc3c(cc2C#N)C(=O)CCC3)cc1 showed an IC50 of 31.4 µM.
CCOc1ccc2[nH]c3c(=O)n(CCc4ccc(OC)cc4)cnc3c2c1 was tested, and the IC50 was 2.05 µM.
In the case of COc1ccc(CNC(=O)CCc2nc3sc4c(c3c(=O)[nH]2)CCCCC4)cc1, the IC50 is reported as > 50 µM (inactive).
With CS(=O)(=O)n1nc(NCc2ccc(F)cc2)nc1NCc1ccc(F)cc1 the IC50 was > 50 µM (inactive).
Work on O=C(Nc1cccc(F)c1)C1CCCN(S(=O)(=O)N2CCCCCC2)C1 (stereo not given) yielded an IC50 of 36.4 µM.
CCc1c(Cl)c(O)c(Cl)c(O)c1C(=O)O[C@H]1C(C)O[C@@H](OC/C2=C\C=C\CC(O)/C(C)=C/C(CC)C(O[C@@H]3OC(C)(C)[C@H](O)C(OC(=O)C(C)C)[C@@H]3O)/C(C)=C/C(C)=C/CC(C(C)O)OC2=O)[C@@H](OC)C1O (stereo not given in full) was tested, and the IC50 was > 50 µM (inactive).
COc1ccccc1OCc1ccc(C(=O)Nc2ccc(F)cc2C)cc1 showed an IC50 of 28.3 µM.
CCc1ccc(NC(=O)COc2cccc(-n3cnnn3)c2)cc1 showed an IC50 of 26.6 µM.
For Cc1ccc2c(c1)[C@]1(C(=O)N2)[C@@H]2C(=O)N(c3cccc(C(F)(F)F)c3)C(=O)[C@@H]2C2CCCN21 (stereo not given in full), the IC50 was > 50 µM (inactive).
In the case of O=C(NCc1cccnc1)c1cnn2c(C(F)(F)F)cc(-c3ccccc3)nc12, the IC50 is reported as > 50 µM (inactive).
FC(F)(F)c1cccc(Nc2nnc(-c3cccnc3)s2)c1 gave an IC50 of 2.76 µM.
Compound COc1ccccc1NS(=O)(=O)c1cccc(NC(=O)CCc2nc3ccccc3s2)c1 has an IC50 of 4.01 µM.
For CC1(C(=O)NC2CCCC2)Cn2c(cc3ccccc32)C(=O)N1c1ccc(F)cc1 (stereo not given), the IC50 was > 50 µM (inactive).
With CC(=O)c1ccc(NC(=O)C[n+]2cc(-c3ccc(Cl)cc3)n3c2CCC3)cc1 the IC50 was > 50 µM (inactive).
With CC(C)N1CC2CN(C(=O)c3ccccc3)CCN2Cc2ccccc21 (stereo not given) the IC50 was > 50 µM (inactive).
Cc1cc(C)n(-c2cccc(C(=O)Nc3ccc4c(c3)CCN4S(C)(=O)=O)c2)n1 was tested, and the IC50 was > 50 µM (inactive).
Cc1ccc(NC(=O)c2ccc3c(c2)N(S(C)(=O)=O)CC3)cc1 showed an IC50 of 34 µM.
COc1ccc(C(=O)NCCc2nnc3ccc(SCC(=O)NCc4ccc(F)cc4)nn23)cc1 showed an IC50 of 15.8 µM.
CCN1CCN(C(=O)CCCN(c2ccccc2)S(C)(=O)=O)CC1 was tested, and the IC50 was > 50 µM (inactive).
COc1ccc(Cn2c(=O)[nH]c3cc(C(=O)NCCCN4CCN(c5cccc(Cl)c5)CC4)ccc3c2=O)cc1 gave an IC50 of 1.92 µM.
O=C(Nc1ccc(N2CCOCC2)cc1)c1ccc(-c2ccc(N3CCCC3)nn2)cc1 was tested, and the IC50 was > 50 µM (inactive).
COc1ccc(Nc2nc(C(=O)NCc3ccccc3)cc3occc23)cc1 was tested, and the IC50 was > 50 µM (inactive).
COc1cc(Cn2cnc3c([nH]c4ccc(Br)cc43)c2=O)cc(OC)c1 was tested, and the IC50 was 2.67 µM.
CCOc1ccccc1C(=O)Nc1ccc2c(c1)Sc1ncccc1C(=O)N2C was tested, and the IC50 was > 50 µM (inactive).
Cc1cc(C)c(NC(=O)CSc2nc3nccnc3c(=O)n2Cc2ccccc2Cl)c(C)c1 showed an IC50 of 3.88 µM.
COc1ccccc1S(=O)(=O)N1CC[C@@H]2CN(C)[C@@H]2C1 showed an IC50 of 32.2 µM.
CC(CCc1ccccc1)NC(=O)Cn1c(=O)c2cccn2c2ccccc21 (stereo not given) was tested, and the IC50 was 4.37 µM.
Work on CCOc1ccc(NC(=O)Cn2cc(C(=O)c3ccc(Cl)cc3)c(=O)c3cc(OC)ccc32)cc1 yielded an IC50 of 0.975 µM.
